Measured values as given in ChEMBL document CHEMBL1201862, “PubChem BioAssay data set” (2004).
Active and inactive are the calls of the source.

Columns and labels:
[1] = target: T1, Microphthalmia-associated transcription factor (Homo sapiens, UniProt O75030); experiment: reducers of TRPM1 reporter luminescence, concentration series – cell-based, SK-MEL-5, cherry-picked, set 3, MITF inhibitor project, dose response (AID 493073); format: functional;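 further: SK-MEL-5 melanoma cells with luciferase driven by the MITF target TRPM1 promoter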
T1 sequence (O75030 whole entry): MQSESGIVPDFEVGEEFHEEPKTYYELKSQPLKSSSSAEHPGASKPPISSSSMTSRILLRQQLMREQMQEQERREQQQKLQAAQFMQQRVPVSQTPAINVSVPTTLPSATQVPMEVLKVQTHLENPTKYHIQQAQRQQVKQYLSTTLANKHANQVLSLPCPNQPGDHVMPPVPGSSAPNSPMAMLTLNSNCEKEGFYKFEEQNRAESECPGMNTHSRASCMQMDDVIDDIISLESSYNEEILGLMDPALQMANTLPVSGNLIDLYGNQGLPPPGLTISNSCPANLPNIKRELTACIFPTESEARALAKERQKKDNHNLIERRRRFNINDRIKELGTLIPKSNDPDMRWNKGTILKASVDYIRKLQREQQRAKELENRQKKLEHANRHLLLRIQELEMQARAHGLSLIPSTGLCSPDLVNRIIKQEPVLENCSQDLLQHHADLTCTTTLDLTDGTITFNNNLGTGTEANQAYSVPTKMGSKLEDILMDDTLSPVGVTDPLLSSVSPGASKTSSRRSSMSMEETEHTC

HEK293 [2] = experiment: inhibition of NOD1-driven NF-kB reporter – cell-based, luminescence, uHTS, primary screen (AID 1578); format: functional; conditions: Homo sapiens
HEK293 [3] = experiment: cells; format: functional, cell-based; conditions: Homo sapiens
HEK293 [4] = experiment: cells; format: functional, cell-based; conditions: Homo sapiens; remark: listed apart in the source
HEK293 [5] = experiment: NOD2 signaling inhibitors in MDP-stimulated cells, cell-based, uHTS, luminescence (AID 2001); format: functional; conditions: Homo sapiens
[6] = reduction of Shn3 3'UTR-driven luciferase in osteoblasts – cell-based, Clone20 osteoblasts, firefly luciferase, cherry-picked, dose response (AID 624132); format: functional;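 further: firefly luciferase luminescence from reporter carrying the Shn3 3'UTR in osteoblasts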
[7] = loss of viability in HepG2 cells – cell-based, CellTiter-Glo, cherry-picked, cytotoxicity control for Shn3 inhibitor project, dose response (AID 624134); format: functional
[8] = non-specific 3'UTR reporter inhibition in Clone20-Shn3RL – cell-based, Renilla luciferase, cherry-picked, counter-screen for Shn3 inhibitor project, dose response (AID 624133); format: functional
[9] = target: Glucose-6-phosphate 1-dehydrogenase (Homo sapiens, UniProt P11413); experiment: inhibition of Homo sapiens G6PD, dose series – biochemical, fluorescence, selectivity assay for P. falciparum G6PD inhibitor project, dose response (AID 504792); format: functional
Glucose-6-phosphate 1-dehydrogenase, sequence (P11413 whole entry): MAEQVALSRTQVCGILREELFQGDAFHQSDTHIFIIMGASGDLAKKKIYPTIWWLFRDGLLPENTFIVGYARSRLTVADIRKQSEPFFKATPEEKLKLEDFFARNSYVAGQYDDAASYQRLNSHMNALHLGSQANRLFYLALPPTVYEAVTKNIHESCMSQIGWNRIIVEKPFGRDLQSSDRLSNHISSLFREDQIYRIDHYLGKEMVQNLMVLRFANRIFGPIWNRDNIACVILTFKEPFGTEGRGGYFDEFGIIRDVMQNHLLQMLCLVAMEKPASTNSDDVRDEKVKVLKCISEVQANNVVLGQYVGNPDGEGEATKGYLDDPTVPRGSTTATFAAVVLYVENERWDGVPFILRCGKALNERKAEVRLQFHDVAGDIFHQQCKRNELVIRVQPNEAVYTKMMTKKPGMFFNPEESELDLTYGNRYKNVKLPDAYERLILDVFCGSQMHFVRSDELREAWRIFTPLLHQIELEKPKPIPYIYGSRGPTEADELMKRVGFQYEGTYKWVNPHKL

Genome polyprotein = Genome polyprotein (dengue virus type 2, UniProt P29990); experiment: flavivirus cap methylation enzyme inhibition – biochemical, confirmation dose response, primary screen (AID 588689); format: functional
[10] = target: DNA (cytosine-5)-methyltransferase 1 (Homo sapiens, UniProt P26358); experiment: inhibition of DNA methylation by DNMT1 – biochemical, fluorescent molecular beacon, confirmation (AID 602386); format: functional
DNA (cytosine-5)-methyltransferase 1, sequence (P26358 whole entry): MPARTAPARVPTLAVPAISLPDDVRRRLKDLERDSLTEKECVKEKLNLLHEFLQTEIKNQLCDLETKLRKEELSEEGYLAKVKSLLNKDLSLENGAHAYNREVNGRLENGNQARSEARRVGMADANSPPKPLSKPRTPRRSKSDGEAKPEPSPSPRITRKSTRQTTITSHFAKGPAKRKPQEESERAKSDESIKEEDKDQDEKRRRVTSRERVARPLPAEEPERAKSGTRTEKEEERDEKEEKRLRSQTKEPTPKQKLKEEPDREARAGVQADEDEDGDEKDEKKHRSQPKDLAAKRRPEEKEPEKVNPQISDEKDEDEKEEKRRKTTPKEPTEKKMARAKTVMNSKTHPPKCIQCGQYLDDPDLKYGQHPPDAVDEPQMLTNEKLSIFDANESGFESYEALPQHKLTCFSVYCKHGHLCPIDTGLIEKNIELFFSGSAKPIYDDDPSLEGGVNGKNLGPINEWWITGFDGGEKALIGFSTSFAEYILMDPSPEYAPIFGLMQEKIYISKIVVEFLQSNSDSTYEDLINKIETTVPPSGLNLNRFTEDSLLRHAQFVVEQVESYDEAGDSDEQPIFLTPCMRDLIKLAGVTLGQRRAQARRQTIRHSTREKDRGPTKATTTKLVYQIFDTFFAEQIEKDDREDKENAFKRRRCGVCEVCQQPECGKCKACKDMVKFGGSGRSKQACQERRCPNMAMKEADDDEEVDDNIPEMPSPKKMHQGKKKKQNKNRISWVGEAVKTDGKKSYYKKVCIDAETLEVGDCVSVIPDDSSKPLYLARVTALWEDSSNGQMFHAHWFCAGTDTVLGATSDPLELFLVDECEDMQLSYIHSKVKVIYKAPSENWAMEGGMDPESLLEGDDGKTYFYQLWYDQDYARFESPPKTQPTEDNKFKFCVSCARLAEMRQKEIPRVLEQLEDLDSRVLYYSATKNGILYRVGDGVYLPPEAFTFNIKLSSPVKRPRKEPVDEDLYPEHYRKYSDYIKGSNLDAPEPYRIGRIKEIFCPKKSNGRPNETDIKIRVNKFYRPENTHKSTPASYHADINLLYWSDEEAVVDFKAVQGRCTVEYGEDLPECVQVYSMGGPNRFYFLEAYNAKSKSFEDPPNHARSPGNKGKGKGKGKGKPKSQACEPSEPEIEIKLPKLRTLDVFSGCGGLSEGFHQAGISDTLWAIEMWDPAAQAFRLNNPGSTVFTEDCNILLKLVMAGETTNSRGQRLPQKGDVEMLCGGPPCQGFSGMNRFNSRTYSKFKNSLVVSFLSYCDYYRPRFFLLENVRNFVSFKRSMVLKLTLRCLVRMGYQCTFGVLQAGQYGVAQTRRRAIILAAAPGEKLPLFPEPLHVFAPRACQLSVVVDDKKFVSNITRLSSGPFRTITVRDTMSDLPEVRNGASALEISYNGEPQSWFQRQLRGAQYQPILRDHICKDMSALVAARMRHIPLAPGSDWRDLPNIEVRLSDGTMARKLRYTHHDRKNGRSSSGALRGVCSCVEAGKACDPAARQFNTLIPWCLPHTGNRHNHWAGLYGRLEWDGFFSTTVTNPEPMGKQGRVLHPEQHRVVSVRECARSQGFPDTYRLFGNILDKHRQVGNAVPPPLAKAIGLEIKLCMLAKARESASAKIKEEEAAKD

[11] = viability loss in HeLa cells – cytotoxicity control for MgcRacGAP inhibitor project, dose response (AID 624300); format: functional
[12] = target: T2, Rac GTPase-activating protein 1 (Homo sapiens, UniProt Q9H0H5); experiment: blockers of MgcRacGAP-driven Rac1 GTP hydrolysis – biochemical, ADP Hunter fluorescence, primary and confirmatory, confirmation (AID 624330); format: functional
T2 sequence (Q9H0H5 whole entry): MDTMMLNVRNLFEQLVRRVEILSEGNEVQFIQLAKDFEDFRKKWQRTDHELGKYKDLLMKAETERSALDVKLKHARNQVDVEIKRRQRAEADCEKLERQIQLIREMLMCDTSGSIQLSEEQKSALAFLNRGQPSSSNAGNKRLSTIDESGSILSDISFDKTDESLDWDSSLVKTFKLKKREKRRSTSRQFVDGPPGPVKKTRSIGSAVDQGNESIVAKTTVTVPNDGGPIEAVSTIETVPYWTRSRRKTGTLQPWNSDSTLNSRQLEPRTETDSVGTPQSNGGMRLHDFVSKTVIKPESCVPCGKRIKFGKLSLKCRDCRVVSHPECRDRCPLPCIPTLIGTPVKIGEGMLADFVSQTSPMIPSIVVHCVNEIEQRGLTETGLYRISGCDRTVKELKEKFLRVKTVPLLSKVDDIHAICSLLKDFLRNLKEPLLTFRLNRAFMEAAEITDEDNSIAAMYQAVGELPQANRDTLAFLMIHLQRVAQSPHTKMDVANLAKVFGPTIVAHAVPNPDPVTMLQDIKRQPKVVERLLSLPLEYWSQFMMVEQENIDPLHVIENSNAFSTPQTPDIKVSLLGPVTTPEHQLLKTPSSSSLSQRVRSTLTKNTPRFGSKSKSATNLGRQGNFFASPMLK

[13] = target: T3, Histone-lysine N-methyltransferase NSD2 (Homo sapiens, UniProt O96028); format: biochemical
T3 sequence (O96028 whole entry): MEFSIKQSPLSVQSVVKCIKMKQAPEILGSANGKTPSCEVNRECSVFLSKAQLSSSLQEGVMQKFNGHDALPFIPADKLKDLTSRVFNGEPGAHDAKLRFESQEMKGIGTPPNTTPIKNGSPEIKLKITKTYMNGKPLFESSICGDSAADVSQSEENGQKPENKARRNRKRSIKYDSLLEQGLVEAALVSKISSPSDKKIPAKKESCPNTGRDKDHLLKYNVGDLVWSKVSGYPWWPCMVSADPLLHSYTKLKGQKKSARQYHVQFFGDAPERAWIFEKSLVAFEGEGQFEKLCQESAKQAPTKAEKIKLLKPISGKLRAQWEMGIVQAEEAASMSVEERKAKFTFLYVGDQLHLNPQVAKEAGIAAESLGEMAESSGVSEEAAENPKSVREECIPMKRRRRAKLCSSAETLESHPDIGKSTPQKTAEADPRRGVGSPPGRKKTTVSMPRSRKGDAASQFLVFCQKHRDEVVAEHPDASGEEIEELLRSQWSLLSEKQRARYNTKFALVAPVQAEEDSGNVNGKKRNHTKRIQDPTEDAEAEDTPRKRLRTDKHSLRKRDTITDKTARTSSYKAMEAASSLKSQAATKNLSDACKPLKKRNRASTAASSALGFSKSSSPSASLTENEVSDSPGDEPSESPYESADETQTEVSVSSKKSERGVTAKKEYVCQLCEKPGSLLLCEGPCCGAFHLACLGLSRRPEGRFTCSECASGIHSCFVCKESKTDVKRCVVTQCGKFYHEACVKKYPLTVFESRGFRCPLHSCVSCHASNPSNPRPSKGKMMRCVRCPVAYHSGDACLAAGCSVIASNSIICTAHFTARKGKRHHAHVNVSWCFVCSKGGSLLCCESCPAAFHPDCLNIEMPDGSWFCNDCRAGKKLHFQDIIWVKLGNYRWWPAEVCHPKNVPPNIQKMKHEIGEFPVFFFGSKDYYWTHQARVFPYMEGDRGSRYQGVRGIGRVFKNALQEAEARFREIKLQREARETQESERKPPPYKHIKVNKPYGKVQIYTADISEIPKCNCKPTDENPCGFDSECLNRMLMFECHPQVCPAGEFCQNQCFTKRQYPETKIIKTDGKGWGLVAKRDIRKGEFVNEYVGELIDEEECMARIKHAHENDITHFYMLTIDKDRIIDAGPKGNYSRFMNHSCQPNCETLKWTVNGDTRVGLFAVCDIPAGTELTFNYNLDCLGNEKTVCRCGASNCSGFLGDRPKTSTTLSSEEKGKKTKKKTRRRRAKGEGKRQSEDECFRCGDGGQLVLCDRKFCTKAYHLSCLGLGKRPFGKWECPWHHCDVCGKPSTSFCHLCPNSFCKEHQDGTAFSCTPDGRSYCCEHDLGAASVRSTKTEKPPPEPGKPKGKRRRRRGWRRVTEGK

Cytochrome P450 2D6 = Cytochrome P450 2D6 (Homo sapiens, UniProt P10635);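 further: CYP2D6 member of a cytochrome P450 panel assay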
Cytochrome P450 2D6, sequence (P10635 whole entry): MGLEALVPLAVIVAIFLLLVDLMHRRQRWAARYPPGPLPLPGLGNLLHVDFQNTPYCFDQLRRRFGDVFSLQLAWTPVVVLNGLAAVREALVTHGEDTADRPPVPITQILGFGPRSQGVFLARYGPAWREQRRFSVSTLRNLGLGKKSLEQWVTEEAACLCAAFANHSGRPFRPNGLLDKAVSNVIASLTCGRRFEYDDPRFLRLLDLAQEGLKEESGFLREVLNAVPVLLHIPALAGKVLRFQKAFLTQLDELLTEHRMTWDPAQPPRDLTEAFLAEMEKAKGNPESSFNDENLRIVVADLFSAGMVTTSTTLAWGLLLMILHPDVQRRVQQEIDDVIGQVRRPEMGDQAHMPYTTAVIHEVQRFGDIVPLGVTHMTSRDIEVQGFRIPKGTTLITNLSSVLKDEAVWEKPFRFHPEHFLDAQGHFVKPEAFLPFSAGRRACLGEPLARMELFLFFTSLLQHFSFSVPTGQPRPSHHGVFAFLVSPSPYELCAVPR

HeLa = experiment: ATP-based viability loss in HeLa cells – cell-based, CellTiter-Glo luminescence, cherry-pick samples, cytotoxicity control for MITF activator project, dose response (AID 540259); format: functional; conditions: Homo sapiens
Bcl-2-related protein A1 = target: T4, Bcl-2-related protein A1 (Mus musculus, UniProt Q07440); format: functional;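 further: confirmatory dose–response counterscreen on Bfl-1, used to check hits from a UBC13 polyubiquitin inhibitor campaign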
T4 sequence (Q07440 whole entry): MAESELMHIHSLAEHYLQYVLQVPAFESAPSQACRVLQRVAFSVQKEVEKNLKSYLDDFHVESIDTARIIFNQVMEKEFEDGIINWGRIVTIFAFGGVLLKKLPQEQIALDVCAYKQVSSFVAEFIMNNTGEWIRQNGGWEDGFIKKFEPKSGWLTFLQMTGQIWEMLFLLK

[14] = target: T5, Ubiquitin-conjugating enzyme E2 N (Homo sapiens, UniProt P61088); format: functional
T5 sequence (P61088 whole entry): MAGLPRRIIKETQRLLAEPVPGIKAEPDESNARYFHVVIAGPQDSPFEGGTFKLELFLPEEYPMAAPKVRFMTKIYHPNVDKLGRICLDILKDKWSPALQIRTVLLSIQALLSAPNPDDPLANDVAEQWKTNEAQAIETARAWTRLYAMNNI

[15] = target: T5, Ubiquitin-conjugating enzyme E2 N; format: functional; remark: listed apart in the source
[16] = microbe, parasite or virus in culture; format: functional; conditions: Mycobacterium tuberculosis
[17] = THP-1 cell cytotoxicity, dose response, cytotoxicity control for non-replicating M. tuberculosis project (AID 489025); format: functional
[18] = HepG2 cell cytotoxicity, dose response, cytotoxicity control for non-replicating M. tuberculosis project (AID 489018); format: functional; conditions: Mycobacterium tuberculosis
[19] = Vero E6 cell cytotoxicity, dose response, cytotoxicity control for non-replicating M. tuberculosis project, secondary assay (AID 492998); format: functional, VeroE6; conditions: Vero C1008
cells = format: functional
Vero = experiment: cells; format: functional, cell-based; conditions: Chlorocebus sabaeus
[20] = target: Voltage-dependent T-type calcium channel subunit alpha-1H (Homo sapiens, UniProt O95180); format: functional;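 further: channel activity triggered by adding a high calcium stimulation buffer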
Voltage-dependent T-type calcium channel subunit alpha-1H, sequence (O95180 whole entry): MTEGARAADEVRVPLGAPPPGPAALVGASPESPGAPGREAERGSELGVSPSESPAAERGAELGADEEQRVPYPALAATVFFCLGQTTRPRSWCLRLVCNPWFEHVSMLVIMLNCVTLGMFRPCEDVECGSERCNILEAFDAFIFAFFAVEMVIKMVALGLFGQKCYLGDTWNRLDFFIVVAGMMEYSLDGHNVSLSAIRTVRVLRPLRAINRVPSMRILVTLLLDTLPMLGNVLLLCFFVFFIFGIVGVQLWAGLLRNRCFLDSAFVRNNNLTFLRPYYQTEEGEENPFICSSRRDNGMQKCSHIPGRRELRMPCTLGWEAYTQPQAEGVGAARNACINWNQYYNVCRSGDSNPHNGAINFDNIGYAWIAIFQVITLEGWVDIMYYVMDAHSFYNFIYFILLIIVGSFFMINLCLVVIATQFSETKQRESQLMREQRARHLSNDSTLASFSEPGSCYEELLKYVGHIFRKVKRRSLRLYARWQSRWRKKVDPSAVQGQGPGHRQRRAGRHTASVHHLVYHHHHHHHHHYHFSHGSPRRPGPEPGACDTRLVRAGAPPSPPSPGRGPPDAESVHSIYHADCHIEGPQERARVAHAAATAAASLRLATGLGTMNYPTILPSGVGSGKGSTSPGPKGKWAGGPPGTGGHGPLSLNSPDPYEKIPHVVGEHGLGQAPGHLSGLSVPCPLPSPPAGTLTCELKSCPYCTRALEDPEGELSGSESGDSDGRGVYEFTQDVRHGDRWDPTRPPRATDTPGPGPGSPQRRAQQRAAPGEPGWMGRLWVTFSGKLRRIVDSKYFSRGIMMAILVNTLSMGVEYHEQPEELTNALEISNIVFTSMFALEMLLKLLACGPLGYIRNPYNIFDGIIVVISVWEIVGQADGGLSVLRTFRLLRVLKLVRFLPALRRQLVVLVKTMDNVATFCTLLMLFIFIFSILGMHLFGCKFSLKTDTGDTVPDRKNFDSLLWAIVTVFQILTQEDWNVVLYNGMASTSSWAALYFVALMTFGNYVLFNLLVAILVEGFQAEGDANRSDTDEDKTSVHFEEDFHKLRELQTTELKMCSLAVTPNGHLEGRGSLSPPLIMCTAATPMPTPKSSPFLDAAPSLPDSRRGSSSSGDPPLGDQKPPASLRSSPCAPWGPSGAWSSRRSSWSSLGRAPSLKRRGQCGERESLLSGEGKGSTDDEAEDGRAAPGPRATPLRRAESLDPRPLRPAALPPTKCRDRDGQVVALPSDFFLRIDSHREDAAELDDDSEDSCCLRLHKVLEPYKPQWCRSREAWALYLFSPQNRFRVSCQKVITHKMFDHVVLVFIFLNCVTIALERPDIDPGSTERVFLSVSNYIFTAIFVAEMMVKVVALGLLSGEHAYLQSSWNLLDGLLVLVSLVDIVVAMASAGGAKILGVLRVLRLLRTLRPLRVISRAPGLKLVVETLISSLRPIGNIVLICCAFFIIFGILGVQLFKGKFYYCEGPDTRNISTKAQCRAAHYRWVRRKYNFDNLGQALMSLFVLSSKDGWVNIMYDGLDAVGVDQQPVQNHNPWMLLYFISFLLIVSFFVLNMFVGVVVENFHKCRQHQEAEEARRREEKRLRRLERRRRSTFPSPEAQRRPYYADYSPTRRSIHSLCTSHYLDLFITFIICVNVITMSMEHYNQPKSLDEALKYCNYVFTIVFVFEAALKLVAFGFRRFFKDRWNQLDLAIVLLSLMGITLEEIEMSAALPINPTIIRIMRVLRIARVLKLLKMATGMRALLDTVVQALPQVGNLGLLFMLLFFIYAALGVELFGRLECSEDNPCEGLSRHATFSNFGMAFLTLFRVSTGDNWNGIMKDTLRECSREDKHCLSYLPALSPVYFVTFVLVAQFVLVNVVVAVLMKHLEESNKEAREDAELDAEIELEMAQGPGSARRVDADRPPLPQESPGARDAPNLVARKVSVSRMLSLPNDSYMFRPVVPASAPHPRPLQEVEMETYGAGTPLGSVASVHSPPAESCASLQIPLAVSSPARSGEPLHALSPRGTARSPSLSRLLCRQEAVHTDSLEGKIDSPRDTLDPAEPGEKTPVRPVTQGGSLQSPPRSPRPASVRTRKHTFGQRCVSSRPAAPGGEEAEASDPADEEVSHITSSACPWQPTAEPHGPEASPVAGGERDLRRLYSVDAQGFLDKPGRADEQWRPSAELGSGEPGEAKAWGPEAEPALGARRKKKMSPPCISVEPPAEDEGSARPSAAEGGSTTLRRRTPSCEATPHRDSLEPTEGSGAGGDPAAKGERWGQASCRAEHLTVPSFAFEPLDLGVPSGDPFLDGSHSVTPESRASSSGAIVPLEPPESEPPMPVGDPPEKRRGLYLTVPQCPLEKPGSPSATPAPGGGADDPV

Structure (SMILES): N#C/C(=C(/O)CCl)c1nc2ccccc2[nH]1
- AC50 [1]: 4.6 µM (active)

Structure (SMILES): Cn1cc(S(=O)(=O)N2CCc3ccccc32)cc1C(=O)NC(C)(C)C
- EC50 (HEK293 [2]): 3.38 µM (active)
- IC50 (HEK293 [3]): 10.6 µM (active)
- IC50 (HEK293 [4]): > 20 µM (inactive)
- IC50 (HEK293 [5]): 12.3 µM (inactive)
- AC50 [6]: 1.25 µM (active)
- AC50 [7]: 3.56 µM (active)
- AC50 [8]: 1.37 µM (active)

Structure (SMILES): COC1=C(Br)C(=O)c2nc(C)ccc2C1=O
- IC50 [9]: 53.7 µM (inactive)
- IC50 (Genome polyprotein): 3.77 µM (active)
- IC50 [10]: 8.73 µM (active)
- CC50 [11]: 100 µM (active)
- IC50 [12]: 68.1 µM (active)
- AC50 [13]: 1.71 µM (active)

Structure (SMILES): CCn1nc(C)c(NC(=O)/C=C/c2cnn(C)c2C)c1C
- AC50 (Cytochrome P450 2D6): inconclusive

Structure (SMILES): Cc1nn2c(-c3ccccc3)ccnc2c1-c1ccccc1
- AC50 (HeLa): 34.7 µM (active)

Structure (SMILES): Cc1ccsc1/C=N\NC(=O)CC(=O)NCc1ccccc1
- IC50 [9]: > 80 µM (inactive)

Structure (SMILES): COc1ccc(/C=N/NC(=O)Cc2csc(Nc3cccc(C(F)(F)F)c3)n2)c(OC)c1
- IC50 (Bcl-2-related protein A1): > 20 µM (inactive)
- IC50 [14]: 14 µM (active)
- IC50 [15]: 10.1 µM (active)

Structure (SMILES): NNC(=O)c1ccc(CN2C(=O)c3cccc4cccc2c34)cc1
- IC50 (Bcl-2-related protein A1): > 20 µM (inactive)
- IC50 [14]: 8.94 µM (active)
- IC50 [15]: 3.55 µM (active)

Structure (SMILES): COC(=O)C1CCCCN1C(=O)c1ccc2oc(Cc3ccccc3)nc2c1 (stereo not drawn)
- AC50 (HeLa): 181 µM (active)

Structure (SMILES): OCCN(CO)CO
- AC50 (Cytochrome P450 2D6): inconclusive

Structure (SMILES): O=C(NCCN1CCN(c2ccccc2)CC1)c1ccc2c(c1)[nH]c(=S)n1c3ccccc3nc21
- IC50 (Bcl-2-related protein A1): > 20 µM (inactive)
- IC50 [14]: 0.829 µM (active)
- IC50 [15]: > 20 µM (inactive)

Structure (SMILES): CC(C)(C)OC(=O)NNc1c2ccccc2nc2ccccc12
- CC50 [16]: > 40 µM (active)
- CC50 [17]: > 40 µM (active)
- CC50 [18]: 15.1 µM (active)
- CC50 [19]: > 20 µM (active)
- IC50 (cells): 22.2 µM (active)

Structure (SMILES): Cc1ccc(C(C)C)cc1OCC(=O)Nc1nnc(C2CC2)s1
- IC50 (Vero): > 25 µM (active)

Structure (SMILES): NS(=O)(=O)c1cc2c(cc1Cl)N=C(CCC(=O)O)N=S2(=O)O
- AC50 (Cytochrome P450 2D6): inconclusive

Structure (SMILES): COc1ccc2c(c1OC)C(=O)N(c1ccc(C)cc1)C2
- AC50 (HeLa): 82.3 µM (active)

Structure (SMILES): COc1cccc(-c2nc(CS(=O)(=O)CC(=O)N3CCc4ccccc4C3)c(C)o2)c1
- EC50 [20]: 10.8 µM (active)

Structure (SMILES): Cn1cccc1Cc1nnc(SCC(=O)Nc2ccc(Cl)cc2)n1-c1ccc(F)cc1
- EC50 [20]: 1.32 µM (active)
